Data published in patent US8178579B2, “Dioxanes and uses thereof” (President and Fellows of Harvard College, priority 2001, dated 2012).
Entries after “also recorded” stand apart in the source; their conditions may differ.

What was measured:
[1] = system: zebrafish (Danio rerio) embryos; test: phenotypic assay with 16-cell zebrafish embryos; format: in vivo; settings: 60 μM, 18 h (24 h in FIG. 22B) post-fertilization
Protocol: To determine the effect of these compounds on whole organism development, a phenotypic assay was performed using 16-cell zebrafish (Danio rerio) embryos (Stockwell et al. Chem. Biol. 1999, 6, 71-83) with 1300 compounds from the 1,3-dioxane library. […] The folded notochord phenotype has also been observed through genetic mutant screens^32 for the gul^m208 and lev^m531 mutations. The 1,3-diol (13) may target these gene products or other proteins involved in the same biological pathway. Dissection of the pathways involved in notochord development may be complemented by small molecule ligands for proteins in those pathways.

[2] = system: microtubules in A549 cells; test: microtubule stability to nocodazole, cold or calcium depolymerization and repolymerization; format: cell-based, human; settings: tubacin 2 μM, ITSA1 50 μM
Protocol: Detection of acetylated α-tubulin and acetylated histones by immunofluorescence was performed as described in Example 6 above. For determining microtubule stability, A549 cells were treated as indicated, fixed in glutaraldehyde, and stained for acetylated α-tubulin and total α-tubulin in antibody dilution buffer (ADB, Tris-buffered saline (TBS), 0.15 M NaCl, 0.02 M Tris-Cl, pH 7.4, with 2% bovine serum albumin and 0.1% Triton-X 100). For cold-depolymerization, cells were incubated at 4° C. or 37° C. for an additional 90 minutes before fixation. For calcium depolymerization, cells were incubated at 37° C. for 10 minutes in a microtubule-stabilizing buffer (0.2% NP-40, 5 mM MgCl2, 2 mM EGTA, 2 M glycerol, 100 mM PIPES, pH 6.8) with and without the addition of CaCl2 (2 mM) before glutaraldehyde fixation. For co-localization experiments, biotubacin (50 μM) treated A549 cells were fixed in 3.7% formaldehyde in TBS and processed as for detecting acetylated α-tubulin (See Example 6 above) with biotubacin detected using streptavidin-TR (1:500). HDAC6 was detected using a rabbit polyclonal antibody (1:250-1:750; C.M.G., unpublished data) under the conditions used to detect acetylated α-tubulin (See Example 6 above). Filamentous actin in HT-1080 cells was detected using TR-conjugated phalloidin (1 μg/mL), and depolymerized actin using FITC-conjugated deoxyribonuclease (10 μg/mL), following fixation in 3.7% formaldehyde in TBS. p58 (1:100) in NIH-3T3 cells was detected after fixation in 3.7% formaldehyde in TBS. Images for these experiments were collected on a Zeiss LSM510 confocal scanning laser microscope at the appropriate wavelengths using the accompanying software and processed with Adobe Photoshop. Deconvoluted serial images of TSA and DMSO treated A549 cells were obtained by taking sections (8μ) on a Zeiss Axioskop 2 microscope using an AxioCam camera and the accompanying software. Rat hippocampal neuronal cultures were fixed at room temperature for 15 min in phosphate-buffered saline (PBS) containing 4% paraformaldehyde. […]

[3] = system: α-tubulin acetylation in the presence of ITSA1; settings: cited from earlier work
α-tubulin deacetylation = test: acetylated α-tubulin in cells (AcTubulin cytoblot, immunofluorescence, Western blot); format: cell-based, human; settings: A549 (also BS-C-1) cells, tubacin/JCWII114, niltubacin/JCWII153 2 μM, TSA 100 nM-4 μM, library ~2-5 μM, 18 h
Protocol: (§1) A549 cells were seeded at a density of 4,000 cells/50 μl in DMEM+ in white tissue culture-treated 384-well plates (Nalge Nunc) using a Multidrop 384 liquid dispenser (Labsystems). Library small molecules were pinned twice (100-150 nl/pin) from ˜1 mM stock solutions (DMSO) and incubated for 18 hours. For the ITSA1+AcTubulin assay, ITSA1 (50 μM) was added four hours after pin-transfer of library molecules. Media was aspirated with a 16-channel wand. For the acetylated α-tubulin cytoblot (AcTubulin), 40 μl/well of fixation solution (3.7% formaldehyde (1:10 from 37% stock) in Tris-buffered saline (TBS, 0.15 M NaCl, 0.02 M Tris-Cl, pH 7.4) was added and plates incubated for twenty minutes at room temperature. After aspiration, 30 μl 100% methanol (−20° C.) was added and incubated for five minutes at room temperature. After aspirating and washing three times with 90 μl of antibody dilution buffer (ADB, TBS/2% bovine serum albumin, 0.1% TritonX-100) the wells were blocked for twenty minutes in ADB. After aspirating, 20 μl/well of ADB containing anti-acetylated α-tubulin antibody (mouse; 1:1000) and anti-mouse IgG horseradish peroxidase (HRP)-conjugated antibody (1:750) was added and incubated overnight (4° C.). For the anti-acetyl lysine cytoblot (AcLysine), 40 μl/well of fixation solution (95% ethanol/5% acetic acid, −20° C.) was added and plates incubated for five minutes at room temperature. Wells were aspirated, washed, and blocked in ADB as for the AcTubulin protocol. After aspirating, 20 μl/well of ADB containing anti-acetylated lysine (rabbit; 1:375) and anti-rabbit IgG-HRP conjugated antibody (1:750) was added and incubated overnight (4° C.). For the anti-acetylated histone H3 (AcHistH3) and anti-acetylated histone H4 (AcHistH4) cytoblots, cells were fixed, washed, and blocked in ADB as for the AcLysine cytoblot. After aspirating, 20 μl/well of ADB containing anti-acetylated histone H3 antibody (rabbit, 1:500) or anti-acetylated histone H4 antibody (rabbit, 1:500) was added and incubated for two hours at room temperature. Wells were aspirated and washed twice with 80 μl of ADB. After aspirating, 20 μl/well of ADB containing anti-rabbit IgG-HRP conjugated antibody (1:1000) was added and incubated for two hours (room temperature). For the AcTubulin and AcLysine assays, plates were washed three times with TBS before adding 20 μl/well of enhanced chemiluminescent (ECL) mixture. For the AcHistH3 and AcHistH4 assays, plates were washed three times with 80 μl TBS with 1% Triton X-100 and once with 80 μl TBS before adding 20 μl/well of ECL mixture. Plates were read on an Analyst plate reader (LJL Biosystems) with an integration time of 0.1 seconds.
(§2) 1,3-dioxanes from single polystyrene macrobeads were prepared as 1-2 mM stock solutions in DMSO as described [Hubbert, C., Guardiola, A., Shao, R., Kawaguchi, Y., Ito, A., Nixon, A., Yoshida, M., Wang, X. F., and Yao, T. P. (2002). HDAC6 is a microtubule-associated deacetylase. Nature 417, 455-458]. Bead decoding and structure determination were as described [See for example, Hubbert, C., Guardiola, A., Shao, R., Kawaguchi, Y., Ito, A., Nixon, A., Yoshida, M., Wang, X. F., and Yao, T. P. (2002). HDAC6 is a microtubule-associated deacetylase. Nature 417, 455-458; and Piperno, G., LeDizet, M., and Chang, X. J. (1987). Microtubules containing acetylated alpha-tubulin in mammalian cells in culture. J. Cell Biol. 104, 289-302]. Small molecules (˜2-5 μM) of interest were retested using a sample from the plate of stock solutions by fluorescence microscopy and comparison to the effects of trichostatin (300 nM to 1 μM).
(§3) A549 cells were seeded at a density of 50,000/200 μl in DMEM+ on the surface of glass coverslips on top of Parafilm in a 10 cm dish and allowed to attach overnight. For detection of acetylated α-tubulin, cells were permeabilized and fixed with 100 mM K-PIPES, pH 6.8, 10 mM EGTA, 1 mM MgCl2, 0.2% triton X-100, 0.2% glutaraldehyde for fifteen minutes. […]

histone deacetylation = test: acetylated lysine / acetylated histone in cells (AcLysine cytoblot, immunofluorescence, Western blot); format: cell-based, human; settings: A549 (also BS-C-1) cells, tubacin, niltubacin 2 μM, histacin 20 μM, library ~2-5 μM, 18 h
Protocol: as §1, §2, §3

[4] = system: α-tubulin acetylation in the presence of ITSA1; test: ITSA1+AcTubulin assay: suppression of induced acetylation by ITSA1; format: cell-based, human; settings: ITSA1 50 μM, A549 cells
Protocol: A549 cells were seeded at a density of 4,000 cells/50 μl in DMEM+ in white tissue culture-treated 384-well plates (Nalge Nunc) using a Multidrop 384 liquid dispenser (Labsystems). Library small molecules were pinned twice (100-150 nl/pin) from ˜1 mM stock solutions (DMSO) and incubated for 18 hours. For the ITSA1+AcTubulin assay, ITSA1 (50 μM) was added four hours after pin-transfer of library molecules. Media was aspirated with a 16-channel wand. […] Plates were read on an Analyst plate reader (LJL Biosystems) with an integration time of 0.1 seconds.
Bromodeoxyuridine labeling and fluorescence-activated cell sorting (FACS) were performed as described (K. M. Koeller et al., Chemistry & Biology, 10 (5) (2003) pp. 397-410). […]

[O-][n+]1ccccc1SC[C@@H](O)[C@@H](c1ccccc1)[C@@H](O)c1ccc(CO)cc1 (racemic) [compound 13, (±)-(1R,2S,3S)-1-[4-(hydroxymethyl)phenyl]-4-[(1-oxido-2-pyridinyl)thio]-2-phenyl-1,3-butanediol]
developmental phenotype of zebrafish embryos [1]: causes a wavy notochord phenotype; also recorded: developed folds in the anterior trunk region of the notochord

O=C(c1ccc(Cl)cc1Cl)n1nnc2ccccc21 [ITSA1, reference compound]
polymerization of microtubules after removal of nocodazole [2]: neither tubacin nor ITSA1 (50 μM; 30 minutes) prevents the repolymerization of microtubules; also recorded: neither tubacin nor ITSA1 prevented the polymerization of microtubules
suppression by ITSA1, stated as known [3]: suppresses (reduces) the ability of TSA to increase acetylation levels of both α-tubulin and histones

Nc1ccccc1NC(=O)CCCCCC(=O)Nc1cccc([C@@H]2O[C@H](CN3CCN(Cc4ccccc4)CC3)C[C@H](c3ccc(CO)cc3)O2)c1 [histacin]
effect on tubulin deacetylation / α-tubulin acetylation in cells (α-tubulin deacetylation): without affecting α-tubulin acetylation levels
effect on tubulin deacetylation / α-tubulin acetylation in cells (α-tubulin deacetylation; listed as 410 F1): no effect on α-tubulin acetylation
effect on histone deacetylation / lysine or histone acetylation in cells (histone deacetylation): increased acetylated histone levels
effect on histone deacetylation / lysine or histone acetylation in cells (histone deacetylation; listed as 410 F1): strongly increased lysine acetylation
suppression of the induced acetylation by ITSA1 [4]: cannot be suppressed by ITSA1
